Source: patent US20210084950A1, “SWEETENING COMPOSITION INDUCING SWEETNESS RESPONSE THROUGH MOLECULE OTHER THAN SWEET TASTE RECEPTOR (T1R2/T1R3)” (SUNTORY HOLDINGS LIMITED, priority 2018, published 2021)

Assays:
[1] = cited from earlier work; for Degree of Sweetness: sucrose per unit concentration Brix 1 defined as 1
[2] = target: T1, sweet taste receptor (T1R2/T1R3) (Homo sapiens, UniProt Q7RTX0+Q8TE23); assay: Sensory evaluation of remaining sweetness intensity of sweet substances with lactisole, relative to sucrose + lactisole; settings: 100 ppm lactisole; solution 15-1 (12 w/v % sucrose + 100 ppm lactisole) = 100%; n=4
T1 sequence (Q8TE23 20-839): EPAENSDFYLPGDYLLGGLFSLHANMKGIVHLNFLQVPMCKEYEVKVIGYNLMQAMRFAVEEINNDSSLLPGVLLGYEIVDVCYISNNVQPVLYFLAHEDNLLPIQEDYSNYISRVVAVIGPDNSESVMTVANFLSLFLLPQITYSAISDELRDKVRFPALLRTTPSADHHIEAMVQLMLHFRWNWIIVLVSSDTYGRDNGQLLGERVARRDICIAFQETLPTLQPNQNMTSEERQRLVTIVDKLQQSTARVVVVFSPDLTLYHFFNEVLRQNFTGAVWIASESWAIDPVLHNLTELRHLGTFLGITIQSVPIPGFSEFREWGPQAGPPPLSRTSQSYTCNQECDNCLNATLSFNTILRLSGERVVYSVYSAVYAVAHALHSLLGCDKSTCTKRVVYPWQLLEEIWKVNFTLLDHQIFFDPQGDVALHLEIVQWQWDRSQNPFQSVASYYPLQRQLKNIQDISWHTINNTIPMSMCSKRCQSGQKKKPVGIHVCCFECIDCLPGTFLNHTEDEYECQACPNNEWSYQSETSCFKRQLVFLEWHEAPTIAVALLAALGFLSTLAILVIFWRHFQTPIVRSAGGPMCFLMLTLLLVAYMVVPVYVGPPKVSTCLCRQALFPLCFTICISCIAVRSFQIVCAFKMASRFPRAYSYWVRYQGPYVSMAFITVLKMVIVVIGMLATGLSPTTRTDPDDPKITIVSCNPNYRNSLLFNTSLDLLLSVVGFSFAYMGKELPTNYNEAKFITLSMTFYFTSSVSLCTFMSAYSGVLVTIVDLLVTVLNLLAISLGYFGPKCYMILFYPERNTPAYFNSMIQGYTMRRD
T1 sequence (Q7RTX0 21-852): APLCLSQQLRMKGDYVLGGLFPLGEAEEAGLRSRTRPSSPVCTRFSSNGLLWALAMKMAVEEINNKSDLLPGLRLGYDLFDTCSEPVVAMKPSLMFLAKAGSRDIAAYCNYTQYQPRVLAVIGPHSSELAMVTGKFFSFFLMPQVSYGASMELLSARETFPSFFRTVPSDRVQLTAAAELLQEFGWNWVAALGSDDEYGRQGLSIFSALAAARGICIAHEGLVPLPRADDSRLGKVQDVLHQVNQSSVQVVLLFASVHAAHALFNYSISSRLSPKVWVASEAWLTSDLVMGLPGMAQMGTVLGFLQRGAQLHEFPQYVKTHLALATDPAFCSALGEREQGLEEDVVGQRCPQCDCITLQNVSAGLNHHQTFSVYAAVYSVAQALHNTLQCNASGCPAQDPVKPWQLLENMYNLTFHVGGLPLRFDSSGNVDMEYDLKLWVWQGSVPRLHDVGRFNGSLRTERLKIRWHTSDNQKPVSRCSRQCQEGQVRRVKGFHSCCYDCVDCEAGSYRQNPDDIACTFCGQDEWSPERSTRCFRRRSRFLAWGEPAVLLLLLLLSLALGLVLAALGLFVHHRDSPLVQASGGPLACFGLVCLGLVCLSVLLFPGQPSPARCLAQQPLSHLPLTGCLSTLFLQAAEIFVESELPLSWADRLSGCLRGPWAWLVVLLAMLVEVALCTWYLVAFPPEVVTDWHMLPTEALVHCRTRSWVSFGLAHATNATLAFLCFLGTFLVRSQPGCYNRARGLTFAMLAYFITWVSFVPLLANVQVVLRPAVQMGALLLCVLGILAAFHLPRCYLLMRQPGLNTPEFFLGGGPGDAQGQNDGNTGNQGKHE
Text: The sweetness intensity of each sample solution was scored by using VAS scale. […] When the value was 50% or more, the substance was considered to be a sucrose-like substance, the taste of which is close to that of sucrose; and when the value was less than 50%, the substance was considered to be a substance, the taste of which is far from that of sucrose.
Each sweet substance was blended so as to have an approximately equal degree of sweetness of 12 w/v % sucrose (corresponding to about Brix 12) while the known degree of sweetness of each sweet substance was used for calculation. […] The sweetness intensity of each sample solution was scored by using VAS scale. […] When the value was 50% or more, the substance was considered to be a sucrose-like substance, the taste of which is close to that of sucrose; and when the value was less than 50%, the substance was considered to be a substance, the taste of which is far from that of sucrose.
D-tagatose was blended so as to have an approximately equal degree of sweetness of 12 w/v % sucrose (corresponding to about Brix 12) while the known degree of sweetness of D-tagatose was used for calculation. […] The sweetness intensity of each sample solution was scored by using VAS scale. […]

[3] = target: T1, sweet taste receptor (T1R2/T1R3); assay: Sensory evaluation (spit test, VAS scale) of sweetness intensity with lactisole, relative to lactisole-free solution; type: in vivo; parameters: The sweet taste receptor is expressed naturally on the cell surface of each taste cell; from tissue; host or cells: tongue (taste cells) of living human panelists; spit test; settings: remaining sweetness with 100 ppm lactisole expressed as sucrose solution
Experimental: Sensory-trained persons (5 subjects) were panelists who conducted evaluation. […] Note that each sample solution was designed to have an approximately equal sweetness intensity while the sweetness intensity of sucralose was estimated to be 600 times the sweetness intensity of sucrose. […] A spit test was conducted for the sensory evaluation. […] Note that each energy (kcal/100 ml) was calculated while the energy of sucrose was set to 4 kcal/g and the energy of sucralose was set to 0 kcal/g.
The sweetness intensity of each sample was scored by using VAS scale. The sweetness intensity of each solution was calculated as a relative value (%) while the sweetness intensity of the 12 w/v % sucrose solution was set to 100%.

Row | SMILES | Degree of Sweetness [1] | Relative sweetness intensity (%) [2] [%] | sweetness intensity relative to the sweetness intensity of sucrose ([1]; estimate used to design sample solutions) [times] | sweetness level corresponding to sucrose solution [3] [w/v %]
1 | O=C[C@H](O)[C@H](O)[C@H](O)[C@H](O)CO [Allose] | 0.8 |  |  | 
2 | O=C(CO)[C@H](O)[C@H](O)[C@H](O)CO [D-allulose] | 0.7 |  |  | 
3 | O=C(CO)[C@@H](O)[C@@H](O)[C@H](O)CO [D-tagatose] | 0.9 | ≥ 50 |  | 
4 | OC[C@H]1O[C@H](O[C@H]2[C@H](O)[C@@H](O)[C@H](O)O[C@@H]2CO)[C@H](O)[C@@H](O)[C@@H]1O [Maltose] | 0.4 |  |  | 
5 | OC[C@H]1O[C@H](O[C@]2(CCl)O[C@H](CCl)[C@@H](O)[C@@H]2O)[C@H](O)[C@@H](O)[C@H]1Cl [sucralose] |  |  | 600 | 0.144
6 | OC[C@H]1O[C@@](CO)(O[C@H]2O[C@H](CO)[C@@H](O)[C@H](O)[C@H]2O)[C@@H](O)[C@@H]1O [sucrose] | 1 |  |  | 2.0
